These results are taken from article PMC9362872 (Journal of Clinical Oncology, 2022).

Each structure is given as a SMILES string.

Series [1] is classed as in vivo, human.
Series [2] can be described thus: Projected human oral half-life. To be noted: projection before first-in-human dosing.
The nature of series [3]: 28-day GLP dog toxicology studies. Type of series: in vivo. To be noted: dog (most sensitive species).
The format of series [4] is in vivo, human. The source holds these as a separate data set.
Where [5] appears, read: RP2D 600 mg twice a day (20 patients), any grade.
The mark [6] stands for this setting: multiple doses of 150 mg and 300 mg once daily, individual patients.

Turning to `C=C(F)C(=O)N1CCN(c2nc(OC[C@@H]3CCCN3C)nc3c2CCN(c2cccc4cccc(Cl)c24)C3)C[C@@H]1CC#N` [Adagrasib], the DLTs entry in series [1] (150 mg, 300 mg, 600 mg once daily, one patient each) was “No DLTs”. The “patients who experienced DLTs” value in series [1] (600 mg twice a day, DLT-evaluable patients) is “three of the 18”. In addition, the “patients who experienced a DLT” value in series [1] (600 mg twice a day, first cohort of six evaluable patients) is reported as “one patient”. In series [1] (RP2D 600 mg twice a day), the “TRAE fatigue, grade 3/4” value is reported as 15.0%. In series [1] (setting [5]), this compound came in with a TRAE diarrhea of 70.0%, a TRAE fatigue of 45.0%, a TRAE nausea of 80.0% and a TRAE vomiting of 50.0%. The maximum tolerated dose result in series [1] (all dose cohorts) is reported as “No maximum tolerated dose was formally defined”. For the same compound, the “patients who experienced one or more DLTs” value in series [1] (all dose levels, 23 DLT-evaluable patients) is given as 21.7%. In addition, the “recommended phase II dose (RP2D)” value in series [1] (oral, based on safety, tolerability and PK) is listed as 600 mg twice a day. In addition, in series [2], the “projected human oral t1/2” value is reported as “approximately 15 hours”. For the same compound, the “highest nonseverely toxic dose (HNSTD)” value in series [3] came out at 25 mg/kg/day. Also, in series [4] (setting [6]), the PTR result was “approximately three” and the drug accumulation entry was “approximately three- to four-fold”. Also, in series [4] (multiple doses of 600 mg twice a day, steady state), the accumulation of adagrasib result is “approximately five- to six-fold”.
